# Laboratory results from US8916565B2, “Pyrrolopyrazine-spirocyclic piperidine amides as modulators of ion channels” (priority 2011, dated 2014).
# Molecular target: human NaV subtype, like NaV 1.7 (Homo sapiens, UniProt Q15858)
# Assay: E-VIPR optical membrane potential assay with electrical stimulation
# Type: cell-based
# Details: active against one or more sodium channels; Table 3 does not name the assay or NaV subtype; read-out: Binned Activity Data (IC50)
# Sequence of human NaV subtype, like NaV 1.7 (Q15858 whole entry): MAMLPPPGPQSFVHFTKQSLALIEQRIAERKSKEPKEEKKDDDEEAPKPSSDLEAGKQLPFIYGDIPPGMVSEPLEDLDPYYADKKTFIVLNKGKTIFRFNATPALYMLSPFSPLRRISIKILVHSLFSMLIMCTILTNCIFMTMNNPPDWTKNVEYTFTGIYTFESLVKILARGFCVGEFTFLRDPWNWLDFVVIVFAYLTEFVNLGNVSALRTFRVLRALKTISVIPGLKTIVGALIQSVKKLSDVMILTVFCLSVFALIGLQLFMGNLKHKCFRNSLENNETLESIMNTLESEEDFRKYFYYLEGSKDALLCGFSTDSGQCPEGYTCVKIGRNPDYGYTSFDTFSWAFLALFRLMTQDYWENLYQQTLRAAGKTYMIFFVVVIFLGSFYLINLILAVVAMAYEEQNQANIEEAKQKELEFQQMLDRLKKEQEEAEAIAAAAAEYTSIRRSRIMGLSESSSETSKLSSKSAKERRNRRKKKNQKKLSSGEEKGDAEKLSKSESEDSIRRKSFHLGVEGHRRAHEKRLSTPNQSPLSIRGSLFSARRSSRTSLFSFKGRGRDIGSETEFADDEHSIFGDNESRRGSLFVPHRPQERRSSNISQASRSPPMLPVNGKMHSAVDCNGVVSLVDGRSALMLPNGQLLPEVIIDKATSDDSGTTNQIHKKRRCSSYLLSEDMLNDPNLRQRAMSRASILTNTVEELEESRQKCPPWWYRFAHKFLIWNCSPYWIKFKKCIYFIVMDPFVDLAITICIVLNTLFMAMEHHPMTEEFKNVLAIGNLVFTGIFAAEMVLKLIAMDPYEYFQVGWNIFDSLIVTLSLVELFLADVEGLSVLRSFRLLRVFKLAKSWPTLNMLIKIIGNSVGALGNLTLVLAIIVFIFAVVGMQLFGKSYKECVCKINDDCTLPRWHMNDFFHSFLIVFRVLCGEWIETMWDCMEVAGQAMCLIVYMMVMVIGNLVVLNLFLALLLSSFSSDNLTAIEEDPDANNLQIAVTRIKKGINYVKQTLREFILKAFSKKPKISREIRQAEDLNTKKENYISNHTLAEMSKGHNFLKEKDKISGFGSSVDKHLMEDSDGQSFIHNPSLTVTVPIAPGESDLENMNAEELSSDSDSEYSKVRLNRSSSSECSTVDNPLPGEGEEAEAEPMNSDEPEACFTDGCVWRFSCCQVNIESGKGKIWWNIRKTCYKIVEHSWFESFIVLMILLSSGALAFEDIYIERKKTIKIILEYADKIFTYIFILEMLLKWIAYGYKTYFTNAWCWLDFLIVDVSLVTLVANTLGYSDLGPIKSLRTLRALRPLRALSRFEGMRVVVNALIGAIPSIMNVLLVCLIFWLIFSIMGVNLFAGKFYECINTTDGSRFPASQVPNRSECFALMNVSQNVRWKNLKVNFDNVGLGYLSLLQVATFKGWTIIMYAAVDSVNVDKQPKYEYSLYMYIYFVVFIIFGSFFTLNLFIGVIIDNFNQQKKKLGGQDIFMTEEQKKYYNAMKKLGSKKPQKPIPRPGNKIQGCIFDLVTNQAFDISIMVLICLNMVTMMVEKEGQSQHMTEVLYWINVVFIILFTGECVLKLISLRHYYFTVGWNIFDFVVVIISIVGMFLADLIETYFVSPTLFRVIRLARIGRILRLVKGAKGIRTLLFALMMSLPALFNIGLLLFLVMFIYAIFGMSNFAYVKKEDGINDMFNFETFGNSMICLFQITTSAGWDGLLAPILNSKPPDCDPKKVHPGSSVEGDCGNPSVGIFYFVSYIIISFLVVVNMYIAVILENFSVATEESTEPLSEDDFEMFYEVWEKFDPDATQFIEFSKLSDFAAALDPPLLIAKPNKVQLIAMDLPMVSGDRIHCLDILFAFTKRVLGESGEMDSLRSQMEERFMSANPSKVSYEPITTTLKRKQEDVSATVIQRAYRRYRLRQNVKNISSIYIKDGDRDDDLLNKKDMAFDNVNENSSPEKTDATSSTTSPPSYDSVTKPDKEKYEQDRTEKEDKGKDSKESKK
row,SMILES,IC50
1,CC[C@@H](C)Oc1ccc(C(=O)N2CCC3(CC2)c2ccc(C(C)=O)n2CCN3C)cc1OC [Compound 572],≤ 2 µM
2,Cc1cc(C(=O)N2CCC3(CC2)c2ccc(C(=O)C(F)(F)F)n2CCN3C)ncc1OC(C)C [Compound 573],≤ 2 µM
3,CC1(C)Cn2c(C(=O)C(F)(F)F)ccc2C2(CCN(C(=O)c3ccc(-c4ccccc4)c(F)c3)CC2)N1 [Compound 576],≤ 2 µM
4,COc1ccc(C(=O)N2CCC3(CC2)c2ccc(C(=O)C(C)(C)C)n2CCN3C)c(F)c1 [Compound 578],2 to 5 µM
5,CCCOc1ccc(C(=O)N2CCC3(CC2)c2ccc(C(C)=O)n2CCN3C)cc1OC [Compound 586],2 to 5 µM
6,CC(C)Oc1ccc(C(=O)N2CCC3(CC2)c2cc(C(=O)C(F)(F)F)cn2C(C)(C)CN3C)cc1Cl [Compound 588],> 5 µM
7,COc1cc(C(=O)N2CCC3(CC2)NC(C)(C)Cn2c(C(=O)C(F)(F)F)ccc23)ccc1-c1ccccc1 [Compound 589],≤ 2 µM
8,CCC(=O)c1ccc2n1CCN(C)C21CCN(C(=O)c2ccc(C(C)(C)O)c(C)c2)CC1 [Compound 591],≤ 2 µM
9,COc1cc(C(=O)N2CCC3(CC2)NCCn2c(C(F)(F)F)ccc23)ccc1O [Compound 594],> 5 µM
10,COc1ccc(C(=O)N2CCC3(CC2)NCC(C)n2c(C(=O)C(F)(F)F)ccc23)cc1C (centres unmarked) [Compound 595],≤ 2 µM
11,COc1ccc(C(=O)N2CCC3(CC2)c2ccc(C(=O)C(F)(F)F)n2C(C)(C)CN3C)cc1C(F)(F)F [Compound 596],> 5 µM
12,Cc1cc(C(=O)N2CCC3(CC2)NC(C)(C)Cn2c(C(F)(F)F)ccc23)ccc1OC(C)C [Compound 598],≤ 2 µM
13,CC(C)Oc1ccc(C(=O)N2CCC3(CC2)c2c(Cl)cc(C(F)(F)F)n2CCN3C)c(F)c1 [Compound 602],≤ 2 µM
14,O=C(c1ccccc1-c1ccccc1)N1CCC2(CC1)NCCn1c(C(F)(F)F)ccc12 [Compound 603],> 5 µM
15,COc1ncc(F)cc1C(=O)N1CCC2(CC1)c1ccc(C(F)(F)F)n1CCN2C [Compound 605],> 5 µM
16,CCCOc1cc(C(=O)N2CCC3(CC2)c2ccc(C(C)=O)n2CCN3C)ccc1OC [Compound 606],> 5 µM
17,CCC(=O)c1ccc2n1CCN(C)C21CCN(C(=O)c2ccc(OC(C)C)c(OC)c2)CC1 [Compound 607],2 to 5 µM

row,SMILES,IC50
1,COc1ccc(C(=O)N2CCC3(CC2)c2ccc(C(=O)C(F)(F)F)n2C[C@H](C)N3C)cc1Cl [Compound 608],≤ 2 µM
2,CC[C@H](C)Oc1ccc(C(=O)N2CCC3(CC2)c2ccc(C(C)=O)n2CCN3C)cc1OC [Compound 609],2 to 5 µM
3,CC(=O)c1ccc2n1CC(C)(C)NC21CCN(C(=O)c2ccc(OC(C)C)c(C(F)(F)F)c2)CC1 [Compound 610],≤ 2 µM
4,CC(C)CCOc1ccc(C(=O)N2CCC3(CC2)NCC(C)n2c(C(=O)C(F)(F)F)ccc23)nc1 (centres unmarked) [Compound 611],≤ 2 µM
5,COc1ccc(C(=O)N2CCC3(CC2)NC(C)(C)Cn2c(C(=O)C(F)(F)F)ccc23)cc1C [Compound 612],≤ 2 µM
6,COc1ccc(C(=O)N2CCC3(CC2)NC(C)(C)Cn2c(C(C)=O)ccc23)cc1C [Compound 613],> 5 µM
7,COc1cc(C(=O)N2CC[C@@]3(C[C@@H]2C)c2ccc(C(F)(F)F)n2CCN3C)ccc1OC(C)C [Compound 614],> 5 µM
8,COCC#Cc1ccc(C(=O)N2CCC3(CC2)c2ccc(C(C)=O)n2CCN3C)cc1F [Compound 615],> 5 µM
9,CN1CCn2c(C(F)(F)F)cc(F)c2C12CCN(C(=O)c1ccc(C(C)(C)O)c(F)c1)CC2 [Compound 616],≤ 2 µM
10,CCOc1cc(C(=O)N2CCC3(CC2)NCCn2c(C(F)(F)F)ccc23)ccc1OC [Compound 618],> 5 µM
11,CCN(C)c1ccnc2c(C(=O)N3CCC4(CC3)c3ccc(C(F)(F)F)n3CCN4C)cnn12 [Compound 628],≤ 2 µM
12,Cc1cc(C(=O)N2CC[C@@]3(c4ccc(C(F)(F)F)n4CCN3C)[C@H](F)C2)ccc1C(C)(C)O [Compound 630],≤ 2 µM
13,COc1ccc(C(=O)N2CCC3(CC2)NC(C)(C)Cn2c(C(C)=O)ccc23)cc1C(F)(F)F [Compound 633],> 5 µM
14,Cc1cc(C(=O)N2CCC3(CC2)c2ccc(C(F)(F)F)n2CCN3C(=O)N(C)C)ccc1C(C)(C)O [Compound 634],> 5 µM
15,CCOc1ccc(C(=O)N2CCC3(CC2)NC(C)(C)Cn2c(C(=O)C(F)(F)F)ccc23)cc1Cl [Compound 636],≤ 2 µM
16,Cc1cc(C(=O)N2CC[C@@]3(c4ccc(C(F)(F)F)n4CCN3C)[C@H](F)C2)ccc1OC(C)C [Compound 642],≤ 2 µM

# The next lines start with the values.
row,IC50,SMILES
1,≤ 2 µM,COc1cc(C(=O)N2CCC3(CC2)c2ccc(C(F)(F)F)n2CCN3CC2CC2)ccc1OC(C)C [Compound 574]
2,≤ 2 µM,CN1CCn2c(C(=O)C(F)(F)F)ccc2C12CCN(C(=O)c1ccc(C(C)(C)O)c(F)c1)CC2 [Compound 575]
3,> 5 µM,CC(=O)c1ccc2n1CCN(C)C21CCN(C(=O)c2ccc(OC(F)(F)F)cc2)CC1 [Compound 577]
4,≤ 2 µM,CCOc1cc(C(=O)N2CCC3(CC2)c2ccc(C(F)(F)F)n2CCN3C)ccc1CO [Compound 579]
5,≤ 2 µM,Cc1cc(C(=O)N2CCC3(CC2)c2ccc(C(F)(F)F)n2CCN3C)ccc1OC(C)C [Compound 580]
6,2 to 5 µM,CN1CCn2c(C(F)(F)F)ccc2C12CCN(C(=O)c1ccnc(N3CCCCC3)c1)CC2 [Compound 581]
7,≤ 2 µM,CN1CCn2c(C(=O)C(F)(F)F)ccc2C12CCN(C(=O)c1ccc(N3CCCCC3)cc1)CC2 [Compound 582]
8,≤ 2 µM,Cc1cc(C(=O)N2CCC3(CC2)c2ccc(C(F)(F)F)n2CCN3C)ccc1OCCCO [Compound 583]
9,≤ 2 µM,CN1CCn2c(C(F)(F)F)ccc2C12CCN(C(=O)c1ccc(S(=O)(=O)NC3CC3)cc1)CC2 [Compound 584]
10,≤ 2 µM,CN1CCn2c(C(=O)C3(C)CC3)ccc2C12CCN(C(=O)c1ccc(COCCC(F)(F)F)cc1)CC2 [Compound 585]
11,≤ 2 µM,CN1CCn2c(ccc2C(F)(F)C(F)(F)F)C12CCN(C(=O)c1ccc(C3(O)CCCC3)cc1)CC2 [Compound 587]
12,2 to 5 µM,CCCOc1ccc(C(=O)N2CCC3(CC2)c2ccc(Cl)n2CCN3C)cc1 [Compound 590]
13,≤ 2 µM,CCCCOc1ccc(C(=O)N2CCC3(CC2)c2ccc(C(=O)C(F)(F)F)n2CCN3C)cc1 [Compound 592]
14,≤ 2 µM,Cc1cc(C(=O)N2CCC3(CC2)c2ccc(CC(F)(F)F)n2CCN3C)ccc1C(C)(C)O [Compound 593]
15,> 5 µM,Cc1ccc(C(=O)N2CCC3(CC2)c2ccc(C(=O)C(F)(F)F)n2CCN3C)cc1O [Compound 597]
16,≤ 2 µM,CC(C)Oc1ccc(C(=O)N2CCC3(CC2)c2ccc(Cl)n2CCN3C)cc1C(F)(F)F [Compound 599]
17,≤ 2 µM,CC1CCN(S(=O)(=O)c2ccc(C(=O)N3CCC4(CC3)c3ccc(C(=O)C(F)(F)F)n3CCN4C)cc2)CC1 [Compound 600]
18,≤ 2 µM,Cc1cc(C(=O)N2CCC3(CC2)c2ccc(C(=O)C(C)(C)C)n2CCN3C)ccc1O [Compound 601]
19,≤ 2 µM,CC(=O)c1ccc2n1CCN(C)C21CCN(C(=O)c2ccc(OCc3ccccc3)cc2)CC1 [Compound 604]
20,≤ 2 µM,CC(C)Oc1ccc(C(=O)N2CCC3(CC2)c2ccc(C(=O)C(C)(C)C)n2CCN3C)cc1C(F)(F)F [Compound 617]
21,≤ 2 µM,CC(C)Oc1ccc(C(=O)N2CCC3(CC2)c2ccc(C(=O)C(C)(C)C)n2CCN3C)cc1F [Compound 619]

row,IC50,SMILES
1,2 to 5 µM,CC(C)C(=O)c1ccc2n1CCN(C)C21CCN(C(=O)c2ccc(O)c(Cl)c2)CC1 [Compound 620]
2,≤ 2 µM,Cc1cc(C(=O)N2CCC3(CC2)c2ccc(C(=O)C(F)(F)F)n2CCN3C)ccc1-c1cnc(N(C)C)nc1 [Compound 621]
3,2 to 5 µM,COc1cc(C(=O)N2CCC3(CC2)c2ccc(C(=O)N4CCC(C(C)C)CC4)n2CCN3C)ccc1OC(C)C [Compound 622]
4,≤ 2 µM,CC(=O)c1ccc2n1CCN(C)C21CCN(C(=O)c2ccc(COCCC(F)(F)F)cc2)CC1 [Compound 623]
5,2 to 5 µM,COc1ccc(C(=O)N2CCC3(CC2)c2ccc(Cl)n2CCN3C)cc1C(F)(F)F [Compound 624]
6,> 5 µM,CN1CCn2c(Cl)ccc2C12CCN(C(=O)c1ccc(C(C)(C)C)cc1)CC2 [Compound 625]
7,≤ 2 µM,CN1CCn2c(Cl)ccc2C12CCN(C(=O)c1ccc(C3CCCCC3)cc1)CC2 [Compound 626]
8,≤ 2 µM,CN1CCn2c(C(=O)C3CC3)ccc2C12CCN(C(=O)c1ccc(COCCC(F)(F)F)cc1)CC2 [Compound 627]
9,≤ 2 µM,CCc1ccc(C(=O)N2CCC3(CC2)c2ccc(C(F)(F)F)n2CCN3C)cc1OC [Compound 629]
10,> 5 µM,CN1CCn2c(C(O)C(F)(F)F)ccc2C12CCN(C(=O)c1ccc(C3CCCCC3)cc1)CC2 (centres unmarked) [Compound 631]
11,≤ 2 µM,Cc1cc(C(=O)N2CCC3(CC2)c2ccc(C(=O)c4ccccc4)n2CCN3C)ccc1O [Compound 632]
12,2 to 5 µM,CN1CCn2c(C(=O)C(F)(F)F)ccc2C12CCN(C(=O)c1ccc(O)c(Cl)c1)CC2 [Compound 635]
13,2 to 5 µM,CN1CCn2c(C(F)(F)F)ccc2C12CCN(C(=O)c1ccc(OCC(C)(C)O)cc1)CC2 [Compound 637]
14,≤ 2 µM,CN1CCn2c(C(=O)C(F)(F)F)ccc2C12CCN(C(=O)c1ccc(C3CCCCC3)cn1)CC2 [Compound 638]
15,≤ 2 µM,CC(C)Oc1ccc(C(=O)N2CCC3(CC2)c2ccc(C(=O)C4CC4)n2CCN3C)cc1Cl [Compound 639]
16,2 to 5 µM,COCCOc1ccc(C(=O)N2CCC3(CC2)c2ccc(C(=O)C(F)(F)F)n2CCN3C)cc1OC [Compound 640]
17,≤ 2 µM,CN1CCn2c(C(=O)C(C)(C)C)ccc2C12CCN(C(=O)c1ccc(O)c(Cl)c1)CC2 [Compound 641]
18,≤ 2 µM,CC(=O)c1ccc2n1CC(C)(C)NC21CCN(C(=O)c2ccc(C3CCCCC3)cc2)CC1 [Compound 643]
19,≤ 2 µM,CN1CCn2c(C(=O)C3(C)CC3)ccc2C12CCN(C(=O)c1ccc(S(=O)(=O)C(F)(F)F)cc1)CC2 [Compound 644]
20,≤ 2 µM,CN1CCn2c(C(=O)C(F)(F)F)ccc2C12CCN(C(=O)c1ccc(OC3CCOCC3)cc1)CC2 [Compound 645]
